Experimental data: patent US20150283095A1, “NANOPARTICLES WITH BIODEGRADABLE AND BIOCOMPATIBLE POLYMER PLGA, LOADED WITH THE DRUG FOR HUMAN USE PENTOXIFYLLINE” (UNIVERSIDAD DE SANTIAGO DE CHILE, priority 2012, published 2015)

Assays:
monoarthritis = assay: Monoarthritis chronic pain model (complete Freund's adjuvant), paw pressure test; format: in vivo, Sprague-Dawley rats; conditions: PTX administered for 10 days, effect up to 21 days
Description: Sprague-Dawley rats weighing approximately 100 g were used. This model was described by Butler (Butler et al, 1992). He was inoculated into the right paw (tibio-tarsal fourth) of rats with 50 uL of complete Freund's adjuvant containing 300 ug Mycobacterium butiricum. This injection produces a localized arthritis syndrome and found to be stable between four and six post-inoculation, weeks During this period there is an establishment of neurogenic pain and hyperalgesia, and this pain is held for more than two months period. Control rats were injected with the vehicle only Mycobacterium butiricum.
All doses of nanoparticles or free drugs were administered by intrathecal (it) in a maximum volume of […], dissolved in artificial cerebrospinal fluid (LCA: 1.3 mm CaCl2, KCl 2.8 mm, 0.9 mm MgCl2, NaHCO3 20 mM, 2.5 mM Na 2 HPO 7H2O, 125 mM NaCl). The injection i.t. it involves administration of the drug into the subarachnoid space between lumbar vertebrae L5 and L6 (Mestre et al, 1994) using a Hamilton syringe with a needle 26Gx1/2”. The entrance to the subarachnoid space evidenced by a slight movement in the tail of the rat, due to the mechanical stimulation of the needle to penetrate the spinal cord meninges. […]

[1] = test system: primary cultures of activated microglia; conditions: LPS-activated microglia treated with propentofylline; cited from earlier work

SMILES | effect on threshold of pain, pressure test of the leg (monoarthritis) | production of tumor necrosis factor (TNF), IL-1β and radicals oxygen [1]
CC(=O)CCCCn1c(=O)c2c(ncn2C)n(C)c1=O [PTX, 3,7-dimethyl-1-(5-oxo-hexyl)xanthine] | lowers the threshold of pain | 
CCCn1cnc2c1c(=O)n(CCCCC(C)=O)c(=O)n2C [propentofylline, 3-methyl-1-(5-oxo-hexyl)-7-propylxanthine] |  | inhibition
